Results from PMC3304000 (Bioorganic & medicinal chemistry, 2012).
In brackets after ≈: the same amount, converted by molar mass. Several values for one entry are separate records, joined by “and”; a condition that tells them apart may be missing. Equal entries are not always repeated.

What was measured:
Assay in all cases: microbe, parasite or virus in culture
Type in all cases: cell-based
Settings in all cases: Mycobacterium tuberculosis
[1] = test system: MDR-TB resistant to HREZSKP
[2] = test system: MDR-TB resistant to HREKP
[3] = test system: MDR-TB resistant to HRERb
[4] = test system: XDR-TB resistant to HRESKO
[5] = test system: XDR-TB resistant to HREKO
[6] = MDR-TB resistant to HRERb, value in parentheses
[7] = MDR-TB resistant to HRERb (isoniazid, rifampin, ethambutol, rifabutin)

Row | Structure (SMILES) | MIC [1] | MIC [2] | MIC [3, 6] | MIC [4] | MIC [5] | MIC [3, 7]
1 | O=C(OCc1ccccc1)c1coc(-c2ccccc2)n1 [Compound 2] | 2.5 µg/mL (≈ 8.95 µM) | 0.3 µg/mL (≈ 1.07 µM) | 2.5 µg/mL | 1.25 µg/mL (≈ 4.48 µM) | 2.5 µg/mL (≈ 8.95 µM) | –
2 | O=C(OCc1ccccc1)c1csc(-c2ccccc2)n1 [Compound 5] | 10 µg/mL (≈ 33.9 µM) | 1.25 µg/mL (≈ 4.23 µM) | 10 µg/mL | 5 µg/mL (≈ 16.9 µM) | 5 µg/mL (≈ 16.9 µM) | –
3 | Cc1ccn2c(C(=O)OCc3ccccc3)c(C)nc2c1 [Compound 11, benzyl 2,7-dimethylimidazo[1,2-a]pyridine-3-carboxylate] | < 0.01 µg/mL | < 0.01 µg/mL | 0.16 µg/mL | < 0.01 µg/mL | < 0.01 µg/mL | 0.6 µM
4 | O=[N+]([O-])c1cn2c(n1)OC[C@@H](OCc1ccc(OC(F)(F)F)cc1)C2 [PA-824, reference compound] | 0.45 µM to 0.86 µM and 0.16 µg/mL to 0.31 µg/mL | 0.45 µM to 0.86 µM and 0.16 µg/mL to 0.31 µg/mL | 0.16 to 0.31 µg/mL | 0.31 µg/mL (≈ 0.863 µM) | 0.08 µg/mL (≈ 0.223 µM) | 0.45 to 0.86 µM
